Reference: ChEMBL document CHEMBL5518224, “Rational Design of PARP1/c-Met Dual Inhibitors for Overcoming PARP1 Inhibitor Resistance Induced by c-Met Overexpression” (J Med Chem, 2024)

Experiments:
[1] = molecular target: T1, Hepatocyte growth factor receptor (Homo sapiens, UniProt P08581); test: Inhibition of c-Met (unknown origin) at 100 nM by HTRF method relative to control
[2] = molecular target: Poly [ADP-ribose] polymerase 1 (Homo sapiens, UniProt P09874); test: Inhibition of PARP1 (unknown origin) using histone as substrate incubated for 45 mins by absorbance based analysis
Poly [ADP-ribose] polymerase 1, sequence (P09874 whole entry): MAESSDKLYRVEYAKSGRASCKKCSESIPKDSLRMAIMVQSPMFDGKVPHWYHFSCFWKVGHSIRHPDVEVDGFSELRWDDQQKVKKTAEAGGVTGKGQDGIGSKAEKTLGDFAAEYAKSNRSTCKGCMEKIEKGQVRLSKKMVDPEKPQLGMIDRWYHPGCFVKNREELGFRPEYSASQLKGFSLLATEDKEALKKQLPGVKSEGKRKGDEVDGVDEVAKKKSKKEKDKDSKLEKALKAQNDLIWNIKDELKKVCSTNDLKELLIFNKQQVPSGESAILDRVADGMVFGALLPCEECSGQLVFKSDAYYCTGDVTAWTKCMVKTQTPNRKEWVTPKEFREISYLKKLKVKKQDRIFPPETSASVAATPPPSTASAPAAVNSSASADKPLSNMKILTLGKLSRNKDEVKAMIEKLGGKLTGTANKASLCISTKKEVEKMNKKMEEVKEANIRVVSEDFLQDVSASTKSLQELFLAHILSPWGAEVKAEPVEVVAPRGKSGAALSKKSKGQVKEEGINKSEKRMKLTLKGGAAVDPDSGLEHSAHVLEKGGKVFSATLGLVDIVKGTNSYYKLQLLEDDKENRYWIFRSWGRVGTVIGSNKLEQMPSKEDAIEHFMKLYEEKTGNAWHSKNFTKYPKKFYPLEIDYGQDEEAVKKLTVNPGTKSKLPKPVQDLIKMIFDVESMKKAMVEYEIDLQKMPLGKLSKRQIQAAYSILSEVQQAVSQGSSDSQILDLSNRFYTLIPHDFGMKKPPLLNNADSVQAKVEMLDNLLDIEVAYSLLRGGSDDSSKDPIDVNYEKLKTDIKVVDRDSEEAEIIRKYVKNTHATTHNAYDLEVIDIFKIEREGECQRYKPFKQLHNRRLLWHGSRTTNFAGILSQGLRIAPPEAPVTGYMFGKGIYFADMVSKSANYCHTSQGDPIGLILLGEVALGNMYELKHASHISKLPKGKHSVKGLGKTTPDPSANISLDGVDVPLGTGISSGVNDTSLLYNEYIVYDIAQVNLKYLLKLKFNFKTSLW

[3] = molecular target: T1, Hepatocyte growth factor receptor; test: Inhibition of c-Met (unknown origin) by HTRF method
MDA-MB-231 = test: Antiproliferative activity against human MDA-MB-231 cells harboring wild type BRCA and c-Met amplification assessed as inhibition of cell growth incubated for 7 days by MTT assay; assay type: functional, cell-based; conditions: MDA-MB-231, 168 h

T1 sequence (P08581 whole entry): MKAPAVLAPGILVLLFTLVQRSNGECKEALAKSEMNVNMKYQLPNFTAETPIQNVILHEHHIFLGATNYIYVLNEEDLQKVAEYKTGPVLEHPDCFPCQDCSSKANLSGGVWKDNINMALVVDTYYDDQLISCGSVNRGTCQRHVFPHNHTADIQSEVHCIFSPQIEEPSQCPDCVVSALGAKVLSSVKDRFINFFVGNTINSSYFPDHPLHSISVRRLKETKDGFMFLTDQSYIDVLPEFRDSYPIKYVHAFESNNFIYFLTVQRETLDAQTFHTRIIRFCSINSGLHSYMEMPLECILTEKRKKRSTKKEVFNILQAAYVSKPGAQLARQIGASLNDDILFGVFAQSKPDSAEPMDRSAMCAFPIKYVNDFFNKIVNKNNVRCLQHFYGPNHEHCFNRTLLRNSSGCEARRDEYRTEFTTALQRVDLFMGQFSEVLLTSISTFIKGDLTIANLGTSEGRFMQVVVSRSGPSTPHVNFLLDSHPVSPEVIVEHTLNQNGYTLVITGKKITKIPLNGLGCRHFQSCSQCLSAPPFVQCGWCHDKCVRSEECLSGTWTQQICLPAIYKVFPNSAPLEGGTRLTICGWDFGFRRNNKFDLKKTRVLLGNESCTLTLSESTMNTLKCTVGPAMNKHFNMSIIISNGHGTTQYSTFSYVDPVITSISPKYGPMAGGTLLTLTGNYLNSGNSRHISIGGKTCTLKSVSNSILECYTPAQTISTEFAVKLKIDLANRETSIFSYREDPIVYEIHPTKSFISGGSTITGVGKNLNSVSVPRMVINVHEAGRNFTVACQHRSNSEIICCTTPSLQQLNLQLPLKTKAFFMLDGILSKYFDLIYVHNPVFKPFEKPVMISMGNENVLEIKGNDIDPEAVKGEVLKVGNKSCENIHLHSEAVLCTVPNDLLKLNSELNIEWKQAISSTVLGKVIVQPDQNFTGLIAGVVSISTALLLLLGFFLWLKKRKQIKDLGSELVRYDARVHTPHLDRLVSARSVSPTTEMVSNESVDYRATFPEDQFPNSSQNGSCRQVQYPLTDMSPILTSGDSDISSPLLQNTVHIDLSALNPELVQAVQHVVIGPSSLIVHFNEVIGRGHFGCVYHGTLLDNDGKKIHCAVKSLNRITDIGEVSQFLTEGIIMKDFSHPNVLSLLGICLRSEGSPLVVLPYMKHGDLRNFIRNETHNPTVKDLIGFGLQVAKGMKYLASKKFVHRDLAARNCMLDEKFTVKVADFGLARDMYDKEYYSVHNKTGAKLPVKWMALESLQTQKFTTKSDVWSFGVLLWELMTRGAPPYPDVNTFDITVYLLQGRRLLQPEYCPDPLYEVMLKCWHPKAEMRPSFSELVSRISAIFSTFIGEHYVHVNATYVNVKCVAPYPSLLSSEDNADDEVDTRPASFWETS

inhibition [1] [%] | IC50 [2] [nM] | IC50 [3] [nM] | IC50 (MDA-MB-231) [nM] | Structure (SMILES)
< 50 | > 1000 | – | – | Cn1cc(-c2ccc(=O)n(CCOc3ccnc4cc(N5CCN(C(=O)c6cc(Cc7n[nH]c(=O)c8ccccc78)ccc6F)C(C)(C)C5)ccc34)n2)cn1
– | 91.7 | 33.1 | – | Cn1cc(-c2ccc(=O)n(CCOc3ccnc4cc(N5CCC(NC(=O)c6cc(Cc7n[nH]c(=O)c8ccccc78)ccc6F)C5)ccc34)n2)cn1 (stereo not given)
– | 5.8 | 42.6 | – | Cn1cc(-c2ccc(=O)n(CCOc3ccnc4cc(NC5CCN(C(=O)c6cc(Cc7n[nH]c(=O)c8ccccc78)ccc6F)C5)ccc34)n2)cn1 (stereo not given)

More lines, now with the values behind:

Structure (SMILES) | inhibition [1] [%] | IC50 [2] [nM] | IC50 [3] [nM] | IC50 (MDA-MB-231) [nM]
Cn1cc(-c2ccc(=O)n(CCOc3ccnc4cc(NC5CCN(C(=O)c6cc(Cc7n[nH]c(=O)c8ccccc78)ccc6F)CC5)ccc34)n2)cn1 | – | 4.7 | 126 | –
O=C(c1cc(Cc2n[nH]c(=O)c3ccccc23)ccc1F)N1CCN(c2ccc3c(OCCn4nc(-c5ccc(C(F)(F)F)cc5)ccc4=O)ccnc3c2)CC1 | < 50 | 7.3 | – | –
Cn1cc(-c2ccc(=O)n(CCOc3ccnc4cc(NCCN5CCN(C(=O)c6cc(Cc7n[nH]c(=O)c8ccccc78)ccc6F)CC5)ccc34)n2)cn1 | < 50 | 32.2 | – | –
O=C(c1cc(Cc2n[nH]c(=O)c3ccccc23)ccc1F)N1CCN(c2ccc3c(OCCn4nc(-c5ccccc5)ccc4=O)ccnc3c2)CC1 | – | 1.1 | 37.7 | 1730
